Measured values published in US8940768B2, “Antifungal triazole derivatives” (Daewoong Pharmaceutical Co., Ltd., priority 2010, dated 2015).
Values after ≈ are worked out from the molar mass of the structure shown. Where two headings read alike, the source gives them in different places.

How the values were obtained:
Type in all cases: cell-based
Candida albicans = experiment: in vitro antifungal activity (MIC80), Candida albicans; details: 80% growth inhibition vs negative control, RPMI 1640, read 24 hrs after application
Protocol: (§1) The compounds of the present invention were evaluated for inhibitory activity against yeast molds including Candida albicans, Candida glabrata, Candida krusei, Candida tropicalis, Candida parapsilosis, and Cryptococcus neoformans, and filamentous fungi including Aspergillus fumigatus, Trichophyton mentagrophytes (obtained from KCTC (Korean Collection for Type Cultures), and Trichophyton rubrum (obtained from KCCM (Korean Culture Center of Microorganisms). All the strains, but Trichophyton mentagrophytes and Trichophyton rubrum, were purchased from the ATCC (American Type Culture Collection).
(§2) Of the strains used in this test, Candida albicans, Candida glabrata, Candida krusei, Candida tropicalis, Candida parapsilosis, Trichophyton mentagrophytes and Trichophyton rubrum were inoculated into sabouraud dextrose agars (Difco, BD-0109), Cryptococcus neoformans into a yeast mold agar (YM agar, Difco, 271210), and Aspergillus fumigatus into a malt extract agar (Difco, 211220), before incubation at 35° C. for two to ten days.
(§3) From the agars on which the yeast molds were grown, single colonies were picked up, and each was sufficiently suspended in 5 mL of already prepared, 0.85% sterile saline. After correction of the absorbance to 0.108 at 530 nm, each of the suspensions was diluted to a ratio of 1:50 in an RPMI (Roswell park memorial institute) 1640 medium and then to a ratio of 1:20 to prepare an inoculum having a cell density of from 1.0×10^3 to 5.0×10^3CFU/mL. The cell density was adjusted into […]˜5.0×10^4 CFU/mL for Aspergillus fumigates and 0.4×10^4˜5.0×10^4 CFU/mL for both Trichophyton mentagrophytes and Trichophyton rubrum.
(§4) The antifungal agent samples were prepared by diluting the active compounds in an RPMI 1640 medium to a serial density of from 0.0156 to 32 μg/mL. In this context, dimethylsulfoxide (DMSO) was used as an excipient at a final concentration of 1% (v/v). The serial dilutions were aliquoted at a volume of 0.1 mL and applied to 0.1 mL of the aliquots of each inoculum, followed by incubation.
(§5) With the naked eyes, an observation was made of all of the yeast molds, but Cryptococcus neoformans 24 hrs after the application, Cryptococcus neoformans and Aspergillus fumigatus 48 hrs after the application, and Trichophyton mentagrophytes and Trichophyton rubrum five days after the application to examine whether the fungi grew or not. In addition, Alamarblue™ as used to determine the concentrations of the compounds of the present invention at which the growth of the microorganisms was 80% inhibited compared to that of the negative control. All experiments were performed in duplicate for each of the test concentration groups.

Candida tropicalis = experiment: in vitro antifungal activity (MIC80), Candida tropicalis; details: 80% growth inhibition vs negative control, RPMI 1640, read 24 hrs after application, read-out: Antifungal Activity (MIC80) C. tropicalis
Protocol: as §1, §2, §3, §4, §5

Candida glabrata = experiment: in vitro antifungal activity (MIC80), Candida glabrata; details: Nakaseomyces glabratus, 24 h, read-out: Antifungal Activity (MIC80) C. grabrata
Protocol: as §1, §2, §3, §4, §5

Trichophyton rubrum = experiment: in vitro antifungal activity (MIC80), Trichophyton rubrum; details: 120 h, 80% growth inhibition vs negative control, RPMI 1640, read five days after application
Protocol: as §1, §2, §3, §4, §5

Cryptococcus neoformans = experiment: in vitro antifungal activity (MIC80), Cryptococcus neoformans; details: 80% growth inhibition vs negative control, RPMI 1640, read 48 hrs after application
Protocol: as §1, §2, §3, §4, §5

Aspergillus fumigatus = experiment: in vitro antifungal activity (MIC80), Aspergillus fumigatus; details: 80% growth inhibition vs negative control, RPMI 1640, read 48 hrs after application
Protocol: as §1, §2, §3, §4, §5

Candida krusei = experiment: in vitro antifungal activity (MIC80), Candida krusei; details: Pichia kudriavzevii; 80% growth inhibition vs negative control; RPMI 1640; read 24 hrs after application; read-out: Antifungal Activity (MIC80) C. krusei
Protocol: as §1, §2, §3, §4, §5

[1] = system: Trichophyton mentagrophytes; experiment: in vitro antifungal activity (MIC80), Trichophyton mentagrophytes; details: 120 h, 80% growth inhibition vs negative control, RPMI 1640, read five days after application
Protocol: as §1, §2, §3, §4, §5

Candida parapsilosis = experiment: in vitro antifungal activity (MIC80), Candida parapsilosis; details: Lodderomyces parapsilosis; 80% growth inhibition vs negative control; RPMI 1640; read 24 hrs after application; read-out: Antifungal Activity (MIC80) C. parapsilosis
Protocol: as §1, §2, §3, §4, §5

[2] = Table 1, read-out: Antifungal Activity (MIC80) C. albicans
[3] = Table 2, read-out: Antifungal Activity (MIC80) Candida albicans

MIC80 (Candida albicans; [3]) [µg/mL]	Compound	MIC80 (Candida albicans; [2]) [µg/mL]	MIC80 (Candida glabrata) [µg/mL]	MIC80 (Aspergillus fumigatus) [µg/mL]	MIC80 (Candida krusei) [µg/mL]	other results
	C[C@@H](N1CCC(Oc2ccc(F)cc2)CC1)[C@](O)(Cn1cncn1)c1ccc(F)cc1F [Example 1, (2R,3R)-2-(2,4-difluorophenyl)-3-(4-(4-fluorophenoxy)piperidin-1-yl)-1-(1H-1,2,4-triazol-1-yl)butan-2-ol]	≤ 0.015	0.25 (≈ 0.56 µM)	≤ 0.125	0.062 (≈ 0.139 µM)	MIC80 (Candida tropicalis): 0.062 µg/mL (≈ 0.139 µM); MIC80 (Trichophyton rubrum): ≤ 0.125 µg/mL; MIC80 (Cryptococcus neoformans): ≤ 0.015 µg/mL; MIC80 [1]: ≤ 0.125 µg/mL; MIC80 (Candida parapsilosis): ≤ 0.015 µg/mL
	C[C@@H](N1CCC(Oc2ccc(Cl)cc2)CC1)[C@](O)(Cn1cncn1)c1ccc(F)cc1F [Example 7, (2R,3R)-3-(4-(4-chlorophenoxy)piperidin-1-yl)-2-(2,4-difluorophenyl)-1-(1H-1,2,4-triazol-1-yl)butan-2-ol]	≤ 0.015		≤ 0.125		
	C[C@@H](N1CCC(Oc2ccc(C(F)(F)F)cc2)CC1)[C@](O)(Cn1cncn1)c1ccc(F)cc1F [Example 13, (2R,3R)-2-(2,4-difluorophenyl)-1-(1H-1,2,4-triazol-1-yl)-3-(4-(4-(trifluoromethyl)phenoxy)piperidin-1-yl)butan-2-ol]	≤ 0.015		1 (≈ 2.01 µM)		
	C[C@@H](N1CCC(Oc2ncccn2)CC1)[C@](O)(Cn1cncn1)c1ccc(F)cc1F [Example 29, (2R,3R)-2-(2,4-difluorophenyl)-3-(4-(pyrimidin-2-yloxy)piperidin-1-yl)-1-(1H-1,2,4-triazol-1-yl)butan-2-ol]	≤ 0.015	1 (≈ 2.32 µM)	1 (≈ 2.32 µM)	0.5 (≈ 1.16 µM)	MIC80 (Candida tropicalis): 0.25 µg/mL (≈ 0.581 µM); MIC80 (Trichophyton rubrum): ≤ 0.125 µg/mL; MIC80 (Cryptococcus neoformans): ≤ 0.015 µg/mL; MIC80 [1]: 0.062 µg/mL (≈ 0.144 µM); MIC80 (Candida parapsilosis): 0.062 µg/mL (≈ 0.144 µM)
	C[C@@H](N1CCC(Nc2ccc(F)cn2)CC1)[C@](O)(Cn1cncn1)c1ccc(F)cc1F [Example 58, (2R,3R)-2-(2,4-difluorophenyl)-3-(4-((5-fluoropyridin-2-yl)amino)piperidin-1-yl)-1-(1H-1,2,4-triazol-1-yl)butan-2-ol]	≤ 0.015	1 (≈ 2.24 µM)	0.125 (≈ 0.28 µM)	0.062 (≈ 0.139 µM)	MIC80 (Candida tropicalis): 0.125 µg/mL (≈ 0.28 µM); MIC80 (Trichophyton rubrum): ≤ 0.125 µg/mL; MIC80 [1]: ≤ 0.125 µg/mL; MIC80 (Candida parapsilosis): 0.062 µg/mL (≈ 0.139 µM)
	C[C@@H](N1CCC(Nc2ncc(F)cn2)CC1)[C@](O)(Cn1cncn1)c1ccc(F)cc1F [Example 63, (2R,3R)-2-(2,4-difluorophenyl)-3-(4-((5-fluoropyrimidin-2-yl)amino)piperidin-1-yl)-1-(1H-1,2,4-triazol-1-yl)butan-2-ol]	≤ 0.015	1 (≈ 2.23 µM)	0.25 (≈ 0.559 µM)	≤ 0.062	MIC80 (Trichophyton rubrum): 0.015 µg/mL (≈ 0.0335 µM); MIC80 [1]: ≤ 0.004 µg/mL
≤ 0.015	C[C@@H](OC1CCN(c2ncc(Br)cn2)CC1)[C@](O)(Cn1cncn1)c1ccc(F)cc1F [Example 120, (2R,3R)-3-((1-(5-bromopyrimidin-2-yl)piperidin-4-yl)oxy)-2-(2,4-difluorophenyl)-1-(1H-1,2,4-triazol-1-yl)butan-2-ol]					
≤ 0.015	C[C@@H](NC1CCN(c2ccccc2)CC1)[C@](O)(Cn1cncn1)c1ccc(F)cc1F [Example 123, (2R,3R)-2-(2,4-difluorophenyl)-3-((1-phenylpiperidin-4-yl)amino)-1-(1H-1,2,4-triazol-1-yl)butan-2-ol]					
≤ 0.015	C[C@@H](NC1CCN(c2ccc(C(F)(F)F)cc2)CC1)[C@](O)(Cn1cncn1)c1ccc(F)cc1F [Example 134, (2R,3R)-2-(2,4-difluorophenyl)-1-(1H-1,2,4-triazol-1-yl)-3-((1-(4-(trifluoromethyl)phenyl)piperidin-4-yl)amino)butan-2-ol]					
≤ 0.015	C[C@@H](NC1CCN(c2ccc(C#N)cc2)CC1)[C@](O)(Cn1cncn1)c1ccc(F)cc1F [Example 137, 4-(4-(((2R,3R)-3-(2,4-difluorophenyl)-3-hydroxy-4-(1H-1,2,4-triazol-1-yl)butan-2-yl)amino)piperidin-1-yl)benzonitrile]					
≤ 0.015	C[C@@H](NC1CCN(c2ccc(F)cn2)CC1)[C@](O)(Cn1cncn1)c1ccc(F)cc1F [Example 146, (2R,3R)-2-(2,4-difluorophenyl)-3-((1-(5-fluoropyridin-2-yl)piperidin-4-yl)amino)-1-(1H-1,2,4-triazol-1-yl)butan-2-ol]					
≤ 0.015	C[C@@H](NC1CCN(c2ccc(Cl)cn2)CC1)[C@](O)(Cn1cncn1)c1ccc(F)cc1F [Example 147, (2R,3R)-3-((1-(5-chloropyridin-2-yl)piperidin-4-yl)amino)-2-(2,4-difluorophenyl)-1-(1H-1,2,4-triazol-1-yl)butan-2-ol]					
	Cc1cc(C(F)(F)F)cnc1N1CCC(N[C@H](C)[C@](O)(Cn2cncn2)c2ccc(F)cc2F)CC1 [Example 148, (2R,3R)-2-(2,4-difluorophenyl)-3-((1-(3-methyl-5-(trifluoromethyl)pyridin-2-yl)piperidin-4-yl)amino)-1-(1H-1,2,4-triazol-1-yl)butan-2-ol]	≤ 0.015	0.25 (≈ 0.49 µM)	1 (≈ 1.96 µM)	≤ 0.062	
≤ 0.015	C[C@@H](NC1CCN(c2ncccn2)CC1)[C@](O)(Cn1cncn1)c1ccc(F)cc1F [Example 149, (2R,3R)-2-(2,4-difluorophenyl)-3-((1-(pyrimidin-2-yl)piperidin-4-yl)amino)-1-(1H-1,2,4-triazol-1-yl)butan-2-ol]					
	C[C@@H](NC1CCN(c2ncc(F)cn2)CC1)[C@](O)(Cn1cncn1)c1ccc(F)cc1F [Example 151, (2R,3R)-2-(2,4-difluorophenyl)-3-((1-(5-fluoropyrimidin-2-yl)piperidin-4-yl)-amino)-1-(1H-1,2,4-triazol-1-yl)butan-2-ol]	≤ 0.015	1 (≈ 2.23 µM)	1 (≈ 2.23 µM)	0.25 (≈ 0.559 µM)	MIC80 (Candida tropicalis): 0.25 µg/mL (≈ 0.559 µM); MIC80 (Trichophyton rubrum): 0.015 µg/mL (≈ 0.0335 µM); MIC80 [1]: ≤ 0.004 µg/mL; MIC80 (Candida parapsilosis): 0.125 µg/mL (≈ 0.279 µM)
≤ 0.015	C[C@@H](N(C)C1CCN(c2ccccc2)CC1)[C@](O)(Cn1cncn1)c1ccc(F)cc1F [Example 155, (2R,3R)-2-(2,4-difluorophenyl)-3-(methyl(1-phenylpiperidin-4-yl)amino)-1-(1H-1,2,4-triazol-1-yl)butan-2-ol]					
≤ 0.015	C[C@@H](N(C)C1CCN(c2ccc(F)cc2)CC1)[C@](O)(Cn1cncn1)c1ccc(F)cc1F [Example 158, (2R,3R)-2-(2,4-difluorophenyl)-3-((1-(4-fluorophenyl)piperidin-4-yl)(methyl)amino)-1-(1H-1,2,4-triazol-1-yl)butan-2-ol]					
≤ 0.015	C[C@@H](N(C)C1CCN(c2ccc(Cl)cc2)CC1)[C@](O)(Cn1cncn1)c1ccc(F)cc1F [Example 161, (2R,3R)-3-((1-(4-chlorophenyl)piperidin-4-yl)(methyl)amino)-2-(2,4-difluorophenyl)-1-(1H-1,2,4-triazol-1-yl)butan-2-ol]					
≤ 0.015	C[C@@H](N(C)C1CCN(c2ccc(C(F)(F)F)cc2)CC1)[C@](O)(Cn1cncn1)c1ccc(F)cc1F [Example 167, (2R,3R)-2-(2,4-difluorophenyl)-3-(methyl(1-(4-(trifluoromethyl)phenyl)piperidin-4-yl)amino)-1-(1H-1,2,4-triazol-1-yl)butan-2-ol]					
≤ 0.015	C[C@@H](N(C)C1CCN(c2ccc(C#N)cc2)CC1)[C@](O)(Cn1cncn1)c1ccc(F)cc1F [Example 170, 4-(4-(((2R,3R)-3-(2,4-difluorophenyl)-3-hydroxy-4-(1H-1,2,4-triazol-1-yl)butan-2-yl)(methyl)amino)piperidin-1-yl)benzonitrile]					
